Assay results as given in patent publication US7176313B2, “Anti acid-fast bacterial agent containing pyridonecarboxylic acids as active ingredient” (Daiichi Pharmaceutical Co., Ltd., priority 2000, dated 2007).
In brackets after ≈: the same amount, converted by molar mass. Read-outs that look alike come from different tables or passages of the source.

How the values were obtained:
[1] = Mouse acute toxicity test; format: in vivo, Male Slc:ddY mice; settings: intravenous
Method: Mouse Acute Toxicity Test
Male Slc:ddY mice at age of 5-weeks were used as test animals. For dissolving the compounds, 0.1 mol/l NaOH (in saline) was used. Mice were administered intravenously at a rate of 0.1 ml/30 seconds at a dosing volume of 10 ml/kg.

reticulocytes (RC) = test: Peripheral blood micronucleus test; format: in vivo, Male Slc:ddY mice; settings: mice, intravenous
Method: Peripheral Blood Micronucleus Test
Used animals and administration method are similar to those in the mouse acute toxicity test. Samples were prepared by collecting 5 μl each of blood sample from the tail vein at 24 and 48 hours after the administration, dropping the blood on a slide at which 0.1% acridine orange solution had been applied in advance, sealing the slide with a cover glass immediately, and allowing it to stand in a refrigerator for 24 hours.

M. avium = test: Antibacterial activity (MIC) against M. avium; format: cell-based, Mycobacterium avium
Method: Antibacterial activity of the compounds of the invention was measured in accordance with the method described in the literature of Antimicrob. […] In the tables, “OFLX” is an abbreviation of “OFLOXAIN”.

M. intracellulare = test: Antibacterial activity (MIC) against M. intracellulare; format: cell-based, Mycobacterium intracellulare
Method: Antibacterial activity of the compounds of the invention was measured in accordance with the method described in the literature of Antimicrob. Agents and Chemother., 38, 2877 (1994), and the results are shown in Tables 3 to 8 in terms of MIC (μg/ml). In the tables, “OFLX” is an abbreviation of “OFLOXAIN”.

[2] = test system: Mycobacterium tuberculosis (RFP sensitive); test: Antibacterial activity (MIC) against Mycobacterium tuberculosis (RFP sensitive); format: cell-based
[3] = M. intracellulare N-338, Table 3
[4] = M. intracellulare N-345, Table 3

Compound: COc1c(C2CNC3(CCC3)CN2)c(F)cc2c(=O)c(C(=O)O)cn([C@@H]3C[C@@H]3F)c12 (stereo partly drawn) [Compd. 23, 7-{5,8-Diazaspiro[3.5]nonan-7-yl}-6-fluoro-1-[(1R,2S)-2-fluorocyclopropyl]-1,4-dihydro-8-methoxy-4-oxoquinoline-3-carboxylic acid]
- melting point: 138 to 140 °C (dec.)

Compound: COc1c(N2CCNC(C3CC3)C2)c(F)cc2c(=O)c(C(=O)O)cn([C@@H]3C[C@@H]3F)c12 (stereo partly drawn) [Compd. 24, 7-(3-Cyclopropylpiperazin-1-yl)-6-fluoro-1-[(1R,2S)-2-fluorocyclopropyl]-1,4-dihydro-8-methoxy-4-oxoquinoline-3-carboxylic acid]
- melting point: 136 to 139 °C

Compound: C[C@H]1COc2c(N3CCN[C@@H](c4ccccc4)C3)c(F)cc3c(=O)c(C(=O)O)cn1c23 [Compd. 27, 9-Fluoro-2,3-dihydro-3-(S)-methyl-7-oxo-10-[3-(S)-phenyl-1-piperazinyl]-7H-pyrido[1.2.3-de][1,4]benzoxazine-6-carboxylic acid]
- survival of mice after administration ([1]; text summary of Table 9): all mice were survived
- Mortality (dead/ test) ([1]; mice, 100 mg/kg): 0/5
- acute toxicity ([1]; mice, text summary of Table 9): relatively weak
- MNRC (%) mean ±S.E. 24 hours (reticulocytes (RC); 100 mg/kg, 24 hours after administration): 0.20 ± 0.03%
- MNRC (%) mean ±S.E. 48 hours (reticulocytes (RC); 100 mg/kg, 48 hours after administration): 0.18 ± 0.04%
- micronucleus induction (reticulocytes (RC); (untreated control: 0.12±0.08)): weak

Compound: COc1c(N2CCN3CCC2C3)c(F)cc2c(=O)c(C(=O)O)cn([C@@H]3C[C@@H]3F)c12 (stereo partly drawn) [Compd. 28, 7-{1,4-Diazabicyclo[3.2.1]octan-4-yl}-6-fluoro-1-[(1R,2S)-2-fluorocyclopropyl]-1,4-dihydro-8-methoxy-4-oxoquinoline-3-carboxylic acid]
- melting point: 195 to 198 °C (dec.)

Compound: CC1COc2c(N3CCN(C)CC3)c(F)cc3c(=O)c(C(=O)O)cn1c23 (stereo not drawn) [OFLX, OFLOXAIN, reference compound]
- MIC (M. avium; M. avium N-357, Table 3): 3.13 µg/mL (≈ 8.66 µM)
- MIC (M. avium; M. avium N-357, Table 4 (series 2)): 4.0 µg/mL (≈ 11.1 µM)
- MIC (M. avium; M. avium N-444, Table 3): 25 µg/mL (≈ 69.2 µM)
- MIC (M. avium; M. avium N-444, Table 4 (series 2)): 32 µg/mL (≈ 88.6 µM)
- MIC (M. avium; M. avium N-458, Table 3): 3.13 µg/mL (≈ 8.66 µM)
- MIC (M. avium; M. avium N-458, Table 4 (series 2)): 4.0 µg/mL (≈ 11.1 µM)
- MIC (M. avium; M. avium N-472, Table 3): 50 µg/mL (≈ 138 µM)
- MIC (M. avium; M. avium N-472, Table 4 (series 2)): 128 µg/mL (≈ 354 µM)
- MIC (M. intracellulare; M. intracellulare N-294, Table 3): 12.5 µg/mL (≈ 34.6 µM)
- MIC (M. intracellulare; M. intracellulare N-294, Table 4 (series 2)): 8.0 µg/mL (≈ 22.1 µM)
- MIC (M. intracellulare; M. intracellulare N-313, Table 3): 6.25 µg/mL (≈ 17.3 µM)
- MIC (M. intracellulare; M. intracellulare N-313, Table 4 (series 2)): 1.0 µg/mL (≈ 2.77 µM)
- MIC (M. intracellulare; [3]): 25 µg/mL (≈ 69.2 µM)
- MIC (M. intracellulare; M. intracellulare N-338, Table 4 (series 2)): 2.0 µg/mL (≈ 5.53 µM)
- MIC (M. intracellulare; [4]): 25 µg/mL (≈ 69.2 µM)
- MIC (M. intracellulare; M. intracellulare N-345, Table 4 (series 2)): 2.0 µg/mL (≈ 5.53 µM)
- MIC ([2]; M. tuberculosis H37Rv, Table 5): 0.39 µg/mL (≈ 1.08 µM)
- MIC ([2]; M. tuberculosis H37Rv, Table 6 (series 2)): 1.0 µg/mL (≈ 2.77 µM)
- MIC ([2]; M. tuberculosis Kurono, Table 5): 0.39 µg/mL (≈ 1.08 µM)
- MIC ([2]; M. tuberculosis Kurono, Table 6 (series 2)): 0.50 µg/mL (≈ 1.38 µM)
- MIC ([2]; M. tuberculosis No. 40, Table 5): 0.39 µg/mL (≈ 1.08 µM)
- MIC ([2]; M. tuberculosis No. 40, Table 6 (series 2)): 1.0 µg/mL (≈ 2.77 µM)
- MIC ([2]; M. tuberculosis No. 41, Table 5): 0.10 µg/mL (≈ 0.277 µM)
- MIC ([2]; M. tuberculosis No. 41, Table 6 (series 2)): 0.25 µg/mL (≈ 0.692 µM)
- MIC ([2]; M. tuberculosis No. 43, Table 6 (series 2)): 8.0 µg/mL (≈ 22.1 µM)
- MIC ([2]; M. tuberculosis No. 68, Table 5): 0.39 µg/mL (≈ 1.08 µM)
- MIC ([2]; M. tuberculosis No. 68, Table 6 (series 2)): 1.0 µg/mL (≈ 2.77 µM)

Compound: CO[C@H]1/C=C/O[C@@]2(C)Oc3c(C)c(O)c4c(O)c(c(/C=N/N5CCN(C)CC5)c(O)c4c3C2=O)NC(=O)/C(C)=C\C=C\[C@H](C)[C@H](O)[C@@H](C)[C@@H](O)[C@@H](C)[C@H](OC(C)=O)[C@@H]1C [RFP, rifampicin, reference compound]
- MIC (M. avium; Mycobacterium avium, M. avium N-357, Table 3, read-out: MIC): 50 µg/mL (≈ 60.8 µM)
- MIC (M. avium; Mycobacterium avium, M. avium N-458, Table 3, read-out: MIC): 100 µg/mL (≈ 122 µM)
- MIC (M. intracellulare; [3]): 3.13 µg/mL (≈ 3.8 µM)
- MIC (M. intracellulare; [4]): 3.13 µg/mL (≈ 3.8 µM)
- MIC (M. intracellulare; Mycobacterium intracellulare, M. intracellulare N-313, Table 3, read-out: MIC): 0.78 µg/mL (≈ 0.948 µM)
- MIC (M. intracellulare; Mycobacterium intracellulare, M. intracellulare N-294, Table 3, read-out: MIC): 3.13 µg/mL (≈ 3.8 µM)
- MIC ([2]; Mycobacterium tuberculosis, H37RV, M. tuberculosis H37Rv, Table 5, read-out: MIC): 0.2 µg/mL (≈ 0.243 µM)
- MIC ([2]; Mycobacterium tuberculosis, M. tuberculosis Kurono, Table 5, read-out: MIC): 0.1 µg/mL (≈ 0.122 µM)
- MIC ([2]; Mycobacterium tuberculosis, M. tuberculosis No. 40, Table 5, read-out: MIC): 0.1 µg/mL (≈ 0.122 µM)
- MIC ([2]; Mycobacterium tuberculosis, M. tuberculosis No. 41, Table 5, read-out: MIC): 0.05 µg/mL (≈ 0.0608 µM)
- MIC ([2]; Mycobacterium tuberculosis, M. tuberculosis No. 43, Table 5, read-out: MIC): 3.13 µg/mL (≈ 3.8 µM)
- MIC ([2]; Mycobacterium tuberculosis, M. tuberculosis No. 68, Table 5, read-out: MIC): 3.13 µg/mL (≈ 3.8 µM)
